Measurements published in US9440980B2, “Remedy for diabetes” (EA Pharma Co., Ltd., priority 2007, dated 2016).

How the values were obtained:
Gβ1γ2-Myc = target: T1, Gβ1γ2-Myc (Homo sapiens, UniProt P62873); assay: Gβ binding ability using Gβ-expressing insect cell extract solution (PD10 method); details: binding strength Compound 1>Compound 3>Compound 6, FIG. 8
T1 construct: made in house; host or cells: Sf21 insect cells (baculovirus), unpurified Triton X-100 extract
Experimental: The PD10 method was carried out as follows. To a microtube were added 250 μl of an RBA buffer, 100 μl of an RBA buffer containing 0 or 500 μM of the unlabeled Compound 1, 100 μl of the above extract solution, and 50 μl of an RBA buffer containing 2.5 μM of the ^3H-labeled Compound 1 successively, and the resultant mixture was stirred and left at room temperature for 1 hour. The entire reaction solution (0.5 ml) was added to a PD10 column sufficiently substituted with the RBA buffer, 2 ml of the RBA buffer was passed through the PD10 column, and thereafter further eluate by 1.5 ml of the RBA buffer was collected as a high-molecular fraction containing the protein, 15 ml of a liquid scintillator was added thereto, and the amount of the ^3H-labeled Compound 1 contained in the high-molecular fraction was measured by a scintillation counter. The count of the sample added with the unlabeled Compound 1 at the final concentration of 100 μM was considered to correspond to the nonspecific binding, the difference between the nonspecific binding count and the count of the sample not added with the unlabeled Compound 1 was considered to correspond to the specific binding, and thus the amount of the binding protein contained in the extract solution was evaluated.
Using the frozen insect cell Sf21 expressing the Gβ1, Myc-Gγ2, and Gαi1-His prepared in Example 19 (8), 10^7 cells were melted and suspended in 1.3 ml of an RBA buffer containing 1% Triton X-100 (75 mM Tris-HCl, 12.5 mM MgCl2, 2 mM EDTA, pH 7.4). […]
The inhibitory activity against the binding of the ^3H-labeled Compound 1 to the Gβ1γ2-Myc was considered to correspond to the activity of the compounds for binding to the Gβ1γ2-Myc. Thus, the activity of each of Compounds 1, 3, and 6 for binding to the Gβ1γ2-Myc was measured using the above extract solution. The activity of the ^3H-labeled Compound 1 for binding to the protein contained in the extract solution was measured by the PD10 method described in Example 15 (1). […]

[1] = target: T2, PI3-kinase β in the presence of Gβ1γ2-His (Homo sapiens, UniProt P42338+P62873); assay: PI3-kinase β activation assay in the presence of Gβ1γ2-His (scintillation counting); assay type: biochemical; details: FIG. 17
T2 construct: purchased Upstate 14-603
Experimental: A lipid micelle solution was prepared in accordance with a method described in Example 24 (2), to this was added the Gβ1γ2-His prepared in (1) at a concentration of 13.3 μg/ml, and the mixture was left on ice for 10 minutes. To 30 μl of the resultant solution were added 5 μl of a solution containing Compound 1 or 6 and 5 μl of a PI3-kinase β solution (5 μg/ml) successively. A 40 μM ATP solution (10 μl) containing ^32P-γ-ATP was added thereto, and a reaction was carried out at room temperature for 2 hours. The reaction was stopped by addition of 80 μl of 1N HCl, and the lipid was extracted with 300 μl of chloroform:methanol (1:1). The organic layer was washed with 80 μl of 1N HCl twice, 10 ml of a liquid scintillator (Hionic Fluor) was added thereto, and the […] was measured by a liquid scintillation counter.

[2] = test system: PI3-kinase β (p110β/p85α); assay: PI3-kinase subtype activity with or without Gβ1γ2-Myc (PIP3 production, 32P-ATP, TLC); assay type: biochemical
Experimental: The subtypes α (PI3 Kinase (p110α/p85α), active, Upstate, Product No. 14-602), β (PI3 Kinase (p110β/p85α), active, Upstate, Product No. 14-603), γ ((PI3KγHis-GST (Phosphoinositide 3-kinase p110γHis/p101GST) human, Recombinant, Sf9 insect cell, JENA Bioscience, Product No. PR-347S), and δ (PI3 Kinase (p110δ/p85α), active, Upstate, Product No. 14-604) were used as the PI3-kinase subtypes respectively. A PI3K buffer (40 mM HEPES-Na (pH 7.4), 120 mM NaCl, 1 mM EGTA, 1 mM dithiothreitol, 1 mM β glycerophosphoric acid, 10 mM MgCl2, 0.1% BSA) was used as a buffer in the following reactions.
To the lipid micelle solution (125 μl) was added the purified Gβ1γ2-Myc solution (250 μl, 10 μg/ml) obtained in (1), and the resultant solution was stirred and left in ice for 10 minutes. 30 μl of the lipid micelle solution containing the Gβγ2-Myc was dispensed into 1.5-ml microtubes, and to these were added 5 μl of a compound solution and 5 μl of each PI3-kinase subtype (α, β, and δ: 5 μg/ml, γ: 2.5 μg/ml) successively. The mixture was left at room temperature for 10 minutes, and a 40-μM ATP solution (10 μl) containing ^32P-γ-ATP was added thereto, to initiate a reaction. The amount of the ^32P-γ-ATP added was about 300 kBq per one reaction. The reaction was carried out at room temperature for 30 minutes, and stopped by adding 80 μl of 1N HCl at ice temperature. 300 μl of a chloroform:methanol (1:1) solution was added thereto, the mixture was stirred to extract the lipid, and the organic layer was washed with 80 μl of 1N HCl twice. The solvent was removed from the residual organic layer under reduced pressure, the residue was dissolved in 20 μl of a chloroform:methanol (4:1) solution, the entire solution was spotted on a TLC plate (Merck, Kieselgel 60), and a TLC was carried out for about 4 hours using a developer of acetic acid:water:1-propanol (4:31:65). The TLC plate was treated with oxalic acid beforehand such that the plate was sufficiently developed by a 40% methanol solution containing 1% of potassium oxalate, dried overnight, and activated at 110° C. for 30 minutes. After the developing, the TLC plate was sufficiently dried and exposed using an imaging plate, and data were obtained by BAS2000 (FUJIFILM Corporation). The data were analyzed by a software of BAS2000, the analysis region was controlled such that spots of phosphatidylinositol-[3,4,5]-trisphosphate (PIP3) in the TLC lanes have the same areas, and the energy (PSL) corresponding to each radioactivity was quantified in the region.
A lipid micelle solution was prepared in the same manner as (2). […] The reaction was carried out at room temperature for 15 minutes, the resultant was treated in the same manner as (2), and the amount of the produced PIP3 was measured.

isolated adipocytes = assay: Measurement of glucose uptake activity in isolated rat adipocytes (2-[14C]-deoxy-D-glucose); assay type: cell-based; details: Adipocyte, glucose uptake of insulin (100 nM) = 100%
Experimental: A male Wistar rat was decapitated and exsanguinated, and then a paratesticular adipose tissue was resected therefrom after laparotomy. The tissue was cut in a KRH (Krebs-Ringer HEPES: 130 mM NaCl, 4.7 mM KCl, 1.2 mM KH2PO4, 1.2 mM MgSO4, 1 mM CaCl2, 25 mM HEPES) containing a BSA (bovine serum albumin), a collagenase (type I) was added thereto, and the resultant was subjected to a digestive treatment for about 40 minutes to obtain isolated adipocytes. The buffer was replaced to remove the collagenase, and a 2% BSA/KRH solution was added thereto, whereby the adipocytes were floated again to obtain a adipocytes suspension.
The glucose uptake activity of a test substance compound was evaluated in accordance with Non-Patent Document 14: Simpson et al., Annual Review of Biochemistry, 55, 1059, (1986). Thus, 200 μl of the adipocytes suspension was dispensed into each polystyrene test tube, 100 μl of a solution containing the test substance compound was added thereto, and the test tube was shaken and incubated at 37° C. for 30 minutes. The glucose uptake activity was evaluated by measuring the amount of 2-[^14C(U)]-deoxy-D-glucose uptaken per unit time. Thus, the 2-[^14C(U)]-deoxy-D-glucose was added to the preincubated adipocytes suspension at the final concentration of 0.5 μCi/sample, and after 5 minutes, cytochalasin B was added thereto at the final concentration of 10 μM to stop the glucose uptake. Dinonyl phthalate was superposed over the solution, the resultant was centrifuged to separate the fat cells from the buffer, and the amount of the 2-[^14C(U)]-deoxy-D-glucose contained in the fat cell layer was measured by a liquid scintillation counter, whereby the uptaken glucose amount was determined. The glucose uptake of insulin (100 nM) was evaluated in the same manner and considered to be 100%, and thus the EC50 value of each compound was obtained.

T1 sequence (P62873 whole entry): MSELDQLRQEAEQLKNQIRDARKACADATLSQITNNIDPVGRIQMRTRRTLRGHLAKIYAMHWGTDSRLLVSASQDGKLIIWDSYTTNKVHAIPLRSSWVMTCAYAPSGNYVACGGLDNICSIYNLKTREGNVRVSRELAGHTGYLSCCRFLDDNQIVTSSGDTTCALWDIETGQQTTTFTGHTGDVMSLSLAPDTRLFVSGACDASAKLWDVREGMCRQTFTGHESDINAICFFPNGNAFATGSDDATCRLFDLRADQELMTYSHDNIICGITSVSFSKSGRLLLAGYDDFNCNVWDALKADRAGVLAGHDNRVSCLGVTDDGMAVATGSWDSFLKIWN
T1 sequence (P59768 with tags, fused parts or gaps partner limits assumed): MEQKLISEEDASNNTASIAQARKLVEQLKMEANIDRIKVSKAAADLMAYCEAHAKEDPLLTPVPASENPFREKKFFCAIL
T2 sequence (P42338 whole entry): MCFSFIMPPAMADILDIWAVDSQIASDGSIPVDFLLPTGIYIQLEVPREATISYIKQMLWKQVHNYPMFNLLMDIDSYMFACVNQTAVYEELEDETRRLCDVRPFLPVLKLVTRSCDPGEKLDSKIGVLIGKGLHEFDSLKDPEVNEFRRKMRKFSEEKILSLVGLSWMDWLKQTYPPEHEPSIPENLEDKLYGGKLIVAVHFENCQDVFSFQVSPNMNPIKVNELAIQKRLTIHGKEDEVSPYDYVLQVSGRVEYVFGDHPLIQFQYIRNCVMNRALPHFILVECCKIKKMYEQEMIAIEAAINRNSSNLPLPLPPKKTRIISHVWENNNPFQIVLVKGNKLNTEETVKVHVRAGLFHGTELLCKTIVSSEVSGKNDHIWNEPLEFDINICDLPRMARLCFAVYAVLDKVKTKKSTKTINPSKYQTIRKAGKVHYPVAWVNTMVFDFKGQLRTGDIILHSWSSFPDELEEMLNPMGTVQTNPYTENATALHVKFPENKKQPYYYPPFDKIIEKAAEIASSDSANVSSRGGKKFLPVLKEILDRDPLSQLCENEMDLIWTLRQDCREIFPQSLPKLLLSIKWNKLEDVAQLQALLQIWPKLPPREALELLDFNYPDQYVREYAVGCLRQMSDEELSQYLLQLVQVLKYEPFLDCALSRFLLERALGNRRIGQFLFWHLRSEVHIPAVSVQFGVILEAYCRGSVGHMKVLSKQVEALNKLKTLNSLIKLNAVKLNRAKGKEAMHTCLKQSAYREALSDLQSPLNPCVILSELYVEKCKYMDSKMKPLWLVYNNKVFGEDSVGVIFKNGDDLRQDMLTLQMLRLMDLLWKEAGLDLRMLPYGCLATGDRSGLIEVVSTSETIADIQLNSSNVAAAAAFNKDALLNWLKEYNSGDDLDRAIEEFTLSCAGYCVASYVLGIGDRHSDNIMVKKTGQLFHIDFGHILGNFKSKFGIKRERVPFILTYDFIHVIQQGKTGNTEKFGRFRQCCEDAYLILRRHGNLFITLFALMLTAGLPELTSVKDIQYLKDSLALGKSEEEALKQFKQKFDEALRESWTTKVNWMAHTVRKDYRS
T2 sequence (P27986 whole entry partner): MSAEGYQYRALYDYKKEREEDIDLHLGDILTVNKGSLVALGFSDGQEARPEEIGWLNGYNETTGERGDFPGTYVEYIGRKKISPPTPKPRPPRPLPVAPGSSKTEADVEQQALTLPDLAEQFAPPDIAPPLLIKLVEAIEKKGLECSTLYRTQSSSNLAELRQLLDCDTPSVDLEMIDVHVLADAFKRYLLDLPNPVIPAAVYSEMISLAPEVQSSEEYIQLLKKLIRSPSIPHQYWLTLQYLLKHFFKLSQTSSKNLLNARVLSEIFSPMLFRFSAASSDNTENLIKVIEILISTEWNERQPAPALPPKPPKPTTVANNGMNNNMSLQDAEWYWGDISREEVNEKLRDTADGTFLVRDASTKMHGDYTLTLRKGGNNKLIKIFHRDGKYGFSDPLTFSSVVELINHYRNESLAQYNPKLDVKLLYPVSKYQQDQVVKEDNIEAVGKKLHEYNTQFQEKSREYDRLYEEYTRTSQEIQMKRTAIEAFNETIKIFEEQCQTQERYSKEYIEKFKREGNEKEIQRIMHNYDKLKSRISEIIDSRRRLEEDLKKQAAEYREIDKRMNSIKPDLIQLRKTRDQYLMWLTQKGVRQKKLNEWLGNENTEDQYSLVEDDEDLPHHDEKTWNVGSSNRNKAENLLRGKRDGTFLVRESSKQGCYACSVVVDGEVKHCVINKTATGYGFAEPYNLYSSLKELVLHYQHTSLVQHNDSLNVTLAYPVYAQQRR
T2 sequence (P62873 whole entry): as the sequence (P62873 whole entry) above
T2 sequence (P59768 with tags, fused parts or gaps partner limits assumed): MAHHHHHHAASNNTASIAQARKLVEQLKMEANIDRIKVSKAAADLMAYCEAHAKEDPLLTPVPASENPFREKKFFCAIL

SMILES | binding to Gβ1γ2-Myc (inhibition of 3H-labeled Compound 1 binding) (Gβ1γ2-Myc) | PI3-kinase activity compared with the case without compound ([1]; 0.1 μM, 10 μM) | effect on PI3-kinase β activity ([2]; 30 μM, presence of Gβ1γ2-Myc, FIG. 13) | effect on PI3-kinase β activity ([2]; absence of the Gβ (Gβ1γ2-Myc), FIG. 14) | effect of enhancing the enzymatic activity of the PI3-kinase β ([2]; presence of Gβ1γ2-Myc, concentration-dependent, 0.1, 1, and 10 μM, FIG. 14) | EC50 (isolated adipocytes) [nM] | PI3-kinase activity compared with the case without compound ([1]; 100 μM) | effect of enhancing the enzymatic activity of the PI3-kinase β ([2]; presence of Gβ1γ2-Myc, concentration-dependent, 100 μM and 1 mM, FIG. 14)
O=C1NCC2=C1[C@@H](c1cccc3ccsc13)N(C(=O)CCc1ccccn1)[C@@H]1CCCC[C@H]1N2 [Compound 1] | could be bound to the Gβγ2-Myc | clearly increased | significant activating effect only on the PI3-kinase β | no effects | significant effect of enhancing the enzymatic activity | 8 | – | –
O=C1NCC2=C1[C@@H](c1ccccc1)N(C(=O)CO)[C@@H]1CCCC[C@H]1N2 [Compound 6] | could be bound to the Gβγ2-Myc | – | – | – | – | 4000 | clearly increased | significant effect of enhancing the enzymatic activity
